Results published in US9216999B2, “Substituted pyrrolo[2,3-h][1,6]naphthyridines and compositions thereof as JAK inhibitors” (priority 2011, dated 2015).
Where a name gives a salt, the structure may show the parent alone. Read-outs that look alike come from different tables or passages of the source.

Columns and labels:
Type in all cases: biochemical
[1] = molecular target: JAK3 (Homo sapiens (Human), UniProt P52333); experiment: Enzyme assay (Assay Example^a 1), JAK3; details: ATP 100 μM
[2] = molecular target: JAK1 (Homo sapiens (Human), UniProt P23458); experiment: Enzyme assay (Assay Example^a 1), JAK1; details: ATP 100 μM
[3] = molecular target: Tyk2 (Homo sapiens (Human), UniProt P29597); experiment: Enzyme assay (Assay Example^a 1), Tyk2; details: ATP 100 μM
[4] = molecular target: JAK2 (Homo sapiens (Human), UniProt O60674); experiment: Enzyme assay (Assay Example^a 1), JAK2

Tyk2, sequence (P29597 whole entry): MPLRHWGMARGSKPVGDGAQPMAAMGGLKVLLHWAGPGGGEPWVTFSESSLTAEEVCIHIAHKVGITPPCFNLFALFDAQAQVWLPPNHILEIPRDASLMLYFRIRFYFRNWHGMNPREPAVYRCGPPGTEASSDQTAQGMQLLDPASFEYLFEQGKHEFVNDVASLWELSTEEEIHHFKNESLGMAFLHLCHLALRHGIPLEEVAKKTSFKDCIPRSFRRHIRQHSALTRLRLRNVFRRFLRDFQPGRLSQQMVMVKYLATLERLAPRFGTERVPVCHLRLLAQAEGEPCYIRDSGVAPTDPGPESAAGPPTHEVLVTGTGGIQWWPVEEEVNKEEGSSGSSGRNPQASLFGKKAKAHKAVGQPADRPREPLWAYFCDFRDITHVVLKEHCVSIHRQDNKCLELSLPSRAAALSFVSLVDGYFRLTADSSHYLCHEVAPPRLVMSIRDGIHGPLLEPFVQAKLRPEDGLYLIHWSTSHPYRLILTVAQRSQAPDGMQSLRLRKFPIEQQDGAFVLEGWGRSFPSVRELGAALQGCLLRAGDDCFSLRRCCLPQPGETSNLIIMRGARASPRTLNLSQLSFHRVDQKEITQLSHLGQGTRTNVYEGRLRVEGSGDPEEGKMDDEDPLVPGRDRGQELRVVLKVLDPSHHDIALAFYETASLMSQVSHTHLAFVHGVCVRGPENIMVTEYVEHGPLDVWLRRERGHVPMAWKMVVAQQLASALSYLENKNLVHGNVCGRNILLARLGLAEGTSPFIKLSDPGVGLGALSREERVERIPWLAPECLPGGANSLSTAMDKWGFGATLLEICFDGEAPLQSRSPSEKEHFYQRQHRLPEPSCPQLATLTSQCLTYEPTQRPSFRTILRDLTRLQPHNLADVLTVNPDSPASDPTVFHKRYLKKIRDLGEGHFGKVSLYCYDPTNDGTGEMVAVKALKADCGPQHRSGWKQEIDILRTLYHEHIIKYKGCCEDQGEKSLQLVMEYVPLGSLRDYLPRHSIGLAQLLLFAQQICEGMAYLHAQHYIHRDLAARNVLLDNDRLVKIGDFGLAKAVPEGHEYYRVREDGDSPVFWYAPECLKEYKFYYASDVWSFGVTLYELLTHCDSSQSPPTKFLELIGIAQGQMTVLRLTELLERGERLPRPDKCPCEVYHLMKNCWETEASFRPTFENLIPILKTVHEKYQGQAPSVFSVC
JAK3, sequence (P52333 whole entry): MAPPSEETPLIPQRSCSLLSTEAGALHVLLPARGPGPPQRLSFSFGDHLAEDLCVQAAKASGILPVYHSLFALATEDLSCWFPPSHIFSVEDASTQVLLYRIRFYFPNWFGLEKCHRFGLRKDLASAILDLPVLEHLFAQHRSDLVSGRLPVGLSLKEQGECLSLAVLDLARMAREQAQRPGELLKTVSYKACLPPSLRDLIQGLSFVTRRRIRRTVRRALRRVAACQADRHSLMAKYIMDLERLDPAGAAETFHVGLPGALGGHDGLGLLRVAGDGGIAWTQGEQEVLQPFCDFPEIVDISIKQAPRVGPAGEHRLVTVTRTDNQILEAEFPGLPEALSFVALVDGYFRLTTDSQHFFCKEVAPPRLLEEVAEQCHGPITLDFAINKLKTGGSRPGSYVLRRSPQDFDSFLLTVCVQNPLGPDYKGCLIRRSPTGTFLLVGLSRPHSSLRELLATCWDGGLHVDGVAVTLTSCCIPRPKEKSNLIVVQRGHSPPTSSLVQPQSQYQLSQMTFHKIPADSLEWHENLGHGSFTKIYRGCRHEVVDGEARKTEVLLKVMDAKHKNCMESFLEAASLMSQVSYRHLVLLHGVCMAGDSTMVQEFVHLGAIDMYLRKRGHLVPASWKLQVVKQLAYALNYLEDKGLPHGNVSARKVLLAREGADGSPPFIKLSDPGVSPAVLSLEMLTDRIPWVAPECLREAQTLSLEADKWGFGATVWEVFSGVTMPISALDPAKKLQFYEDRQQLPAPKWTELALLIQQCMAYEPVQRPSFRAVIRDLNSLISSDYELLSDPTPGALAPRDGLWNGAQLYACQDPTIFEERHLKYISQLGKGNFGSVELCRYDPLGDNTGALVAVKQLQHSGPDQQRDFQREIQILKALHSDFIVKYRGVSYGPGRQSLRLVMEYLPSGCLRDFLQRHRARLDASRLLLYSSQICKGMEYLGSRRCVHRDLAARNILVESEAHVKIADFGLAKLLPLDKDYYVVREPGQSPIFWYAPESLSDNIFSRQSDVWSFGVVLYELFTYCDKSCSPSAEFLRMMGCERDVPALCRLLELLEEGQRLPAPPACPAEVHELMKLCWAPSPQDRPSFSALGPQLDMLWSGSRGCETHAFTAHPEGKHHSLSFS

IC50 [1] [µM] | IC50 [2] [µM] | IC50 [3] [µM] | IC50 ([4]; ATP 100 μM) [µM] | IC50 ([1]; Table^a 154) [µM] | IC50 ([2]; Table^a 154) [µM] | IC50 ([3]; Table^a 154) [µM] | IC50 ([4]; ATP 100 μM, Table^a 154) [µM] | Structure (SMILES) | IC50 [4] [µM]
0.1 | 0.0032 | 0.88 | 0.014 | – | – | – | – | O=C(C[C@H]1CC[C@H](c2nnn3cnc4[nH]ccc4c23)CC1)NCC(F)(F)F [442b, 2-[trans-4-(7H-Pyrrolo[3,2-e][1,2,3]triazolo[1,5-c]pyrimidin-1-yl)cyclohexyl]-N-2,2,2-trifluoroethylacetamide] | –
– | – | – | – | > 1 | 0.032 | 0.33 | 0.74 | c1ccc(CN[C@H]2CC[C@@H](c3nnn4cnc5[nH]ccc5c34)CC2)cc1 [194a, cis-N-benzyl-4-(7H-pyrrolo[3,2-e][1,2,3]triazolo[1,5-c]pyrimidin-1-yl)cyclohexanamine] | –
0.52 | 0.027 | 0.79 | 0.061 | – | – | – | – | O=C(C[C@H]1CC[C@@H](c2nnn3cnc4[nH]ccc4c23)CC1)NCC(F)(F)F [442a, 2-[cis-4-(7H-Pyrrolo[3,2-e][1,2,3]triazolo[1,5-c]pyrimidin-1-yl)cyclohexyl]-N-2,2,2-trifluoroethylacetamide] | –
0.48 | 0.0069 | 0.59 | 0.06 | – | – | – | – | FC1CN(C[C@H]2CC[C@H](c3nnn4cnc5[nH]ccc5c34)CC2)C1 [compound 338, 1-{trans-4-[(3-fluoroazetidin-1-yl)methyl]cyclohexyl}-7H-pyrrolo[3,2-e][1,2,3]triazolo[1,5-c]pyrimidine] | –
0.84 | 0.0069 | 0.33 | 0.064 | – | – | – | – | CC1(NC[C@H]2CC[C@H](c3nnn4cnc5[nH]ccc5c34)CC2)CC1 [compound 295, N-{[trans-4-(7H-pyrrolo[3,2-e][1,2,3]triazolo[1,5-c]pyrimidin-1-yl)cyclohexyl]methyl}-1-methylcyclopropanamine] | –
0.57 | 0.0046 | 0.24 | 0.021 | – | – | – | – | O=C1COc2cc(NC[C@H]3CC[C@H](c4nnn5cnc6[nH]ccc6c45)CC3)ccc2N1 [compound 273, 7-({[trans-4-(7H-pyrrolo[3,2-e][1,2,3]triazolo[1,5-c]pyrimidin-1-yl)cyclohexyl]methyl}amino)-2H-benzo[b][1,4]oxazin-3(4H)-one] | –
– | – | – | – | 0.23 | 0.0058 | 0.29 | 0.03 | Fc1ccc(CN2CCC(c3nnn4cnc5[nH]ccc5c34)CC2)c(F)c1 [compound 164, 1-[1-(2,4-difluorobenzyl)piperidin-4-yl]-7H-pyrrolo[3,2-e][1,2,3]triazolo[1,5-c]pyrimidine] | –
0.34 | 0.017 | 0.58 | 0.044 | – | – | – | – | CCOC(=O)CC1CCC(c2nnn3cnc4[nH]ccc4c23)CC1 (stereo not drawn) [compound 438, Ethyl 2-[4-(7H-pyrrolo[3,2-e][1,2,3]triazolo[1,5-c]pyrimidin-1-yl)cyclohexyl]acetate] | –
0.31 | 0.01 | 0.32 | 0.059 | – | – | – | – | O=C(CNC[C@H]1CC[C@H](c2nnn3cnc4[nH]ccc4c23)CC1)NCC(F)(F)F [compound 341, 2-({[trans-4-(7H-pyrrolo[3,2-e][1,2,3]triazolo[1,5-c]pyrimidin-1-yl)cyclohexyl]methyl}amino)-N-(2,2,2-trifluoroethyl)acetamide] | –
> 1 | 0.01 | 0.53 | 0.2 | – | – | – | – | OCCN1CCN(C[C@H]2CC[C@H](c3nnn4cnc5[nH]ccc5c34)CC2)CC1 [compound 315, 2-(4-{[trans-4-(7H-pyrrolo[3,2-e][1,2,3]triazolo[1,5-c]pyrimidin-1-yl)cyclohexyl]methyl}piperazin-1-yl)ethanol] | –
– | – | – | – | 0.37 | 0.0076 | 0.36 | 0.038 | N#C[C@H]1CCN(C[C@H]2CC[C@H](c3nnn4cnc5[nH]ccc5c34)CC2)C1 [compound 187, (S)-1-{[trans-4-(7H-pyrrolo[3,2-e][1,2,3]triazolo[1,5-c]pyrimidin-1-yl)cyclohexyl]methyl}pyrrolidine-3-carbonitrile] | –
– | – | – | – | 0.61 | 0.011 | 0.38 | 0.038 | CS(=O)(=O)c1ccc2c(c1)CCN2C[C@H]1CC[C@H](c2nnn3cnc4[nH]ccc4c23)CC1 [compound 189, 1-(trans-4-{[5-(methylsulfonyl)indolin-1-yl]methyl}cyclohexyl)-7H-pyrrolo[3,2-e][1,2,3]triazolo[1,5-c]pyrimidine] | –
– | – | – | – | 0.61 | 0.0057 | 0.099 | 0.072 | c1ccc(CCNC[C@H]2CC[C@H](c3nnn4cnc5[nH]ccc5c34)CC2)cc1 [compound 174, N-{[trans-4-(7H-pyrrolo[3,2-e][1,2,3]triazolo[1,5-c]pyrimidin-1-yl)cyclohexyl]methyl}-2-phenylethanamine] | –
– | – | – | – | 0.03 | 0.0013 | 0.022 | 0.0019 | N#CCCN(CCC#N)C[C@H]1CC[C@H](c2nnn3cnc4[nH]ccc4c23)CC1 [compound 180, 3,3′-({[trans-4-(7H-pyrrolo[3,2-e][1,2,3]triazolo[1,5-c]pyrimidin-1-yl)cyclohexyl]methyl}azanediyl)dipropanenitrile] | –
0.72 | 0.0054 | 0.17 | 0.021 | – | – | – | – | N#CC[C@H]1CC[C@@H](c2nnn3cnc4[nH]ccc4c23)CC1 [435a, 2-[cis-4-(7H-Pyrrolo[3,2-e][1,2,3]triazolo[1,5-c]pyrimidin-1-yl)cyclohexyl]acetonitrile] | –
– | – | – | – | 0.2 | 0.0029 | 0.0028 | 0.031 | Clc1ccc(CNC[C@H]2CC[C@H](c3nnn4cnc5[nH]ccc5c34)CC2)cc1 [compound 177, 1-[trans-4-(7H-pyrrolo[3,2-e][1,2,3]triazolo[1,5-c]pyrimidin-1-yl)cyclohexyl]-N-(4-chlorobenzyl)methanamine] | –
0.31 | 0.0034 | 0.13 | 0.0073 | – | – | – | – | N#CCC(=O)N(CC(F)(F)F)C[C@H]1CC[C@H](c2nnn3cnc4[nH]ccc4c23)CC1 [compound 407, N-{[trans-4-(7H-Pyrrolo[3,2-e][1,2,3]triazolo[1,5-c]pyrimidin-1-yl)cyclohexyl]methyl}-2-cyano-N-(2,2,2-trifluoroethyl)acetamide] | –
– | – | – | – | 0.4 | 0.0025 | 0.065 | 0.037 | Clc1ccc(CCN[C@H]2CC[C@H](c3nnn4cnc5[nH]ccc5c34)CC2)cc1 [198b, trans-N-(4-chlorophenethyl)-4-(7H-pyrrolo[3,2-e][1,2,3]triazolo[1,5-c]pyrimidin-1-yl)cyclohexanamine] | –
– | – | – | – | 0.56 | 0.007 | 0.12 | 0.042 | Fc1ccc(CN[C@H]2CC[C@H](c3nnn4cnc5[nH]ccc5c34)CC2)cc1 [195b, trans-N-(4-fluorobenzyl)-4-(7H-pyrrolo[3,2-e][1,2,3]triazolo[1,5-c]pyrimidin-1-yl)cyclohexanamine] | –

Structure (SMILES) | IC50 [1] [µM] | IC50 [2] [µM] | IC50 [3] [µM] | IC50 ([4]; ATP 100 μM) [µM] | IC50 ([1]; Table^a 154) [µM] | IC50 ([2]; Table^a 154) [µM] | IC50 ([3]; Table^a 154) [µM] | IC50 ([4]; ATP 100 μM, Table^a 154) [µM] | IC50 [4] [µM]
O=C(CN[C@H]1CC[C@@H](c2nnn3cnc4[nH]ccc4c23)CC1)NCC(F)(F)F [384a, 2-{[cis-4-(7H-pyrrolo[3,2-e][1,2,3]triazolo[1,5-c]pyrimidin-1-yl)cyclohexyl]amino}-N-(2,2,2-trifluoroethyl)acetamide] | > 1 | 0.087 | > 1 | 0.56 | – | – | – | – | –
CCS(=O)(=O)N1CCN(C[C@H]2CC[C@H](c3nnn4cnc5[nH]ccc5c34)CC2)CC1 [compound 345, 1-(trans-4-{[4-(ethylsulfonyl)piperazin-1-yl]methyl}cyclohexyl)-7H-pyrrolo[3,2-e][1,2,3]triazolo[1,5-c]pyrimidine] | > 1 | 0.025 | > 1 | 0.2 | – | – | – | – | –
c1nc(CCNC[C@H]2CC[C@H](c3nnn4cnc5[nH]ccc5c34)CC2)c[nH]1 [compound 192, N-{[trans-4-(7H-pyrrolo[3,2-e][1,2,3]triazolo[1,5-c]pyrimidin-1-yl)cyclohexyl]methyl}-2-(1H-imidazol-4-yl)ethanamine hydrochloride] | – | – | – | – | 0.32 | 0.0039 | 0.1 | 0.038 | –
N#CCNC(=O)[C@H]1CC[C@H](c2nnn3cnc4[nH]ccc4c23)CC1 [compound 355, trans-N-(cyanomethyl)-4-(7H-pyrrolo[3,2-e][1,2,3]triazolo[1,5-c]pyrimidin-1-yl)cyclohexanecarboxamide] | > 1 | 0.0042 | 0.15 | 0.033 | – | – | – | – | –
OC1(c2ccc(Cl)c(C(F)(F)F)c2)CCN(C[C@H]2CC[C@H](c3nnn4cnc5[nH]ccc5c34)CC2)CC1 [compound 309, 1-{[trans-4-(7H-pyrrolo[3,2-e][1,2,3]triazolo[1,5-c]pyrimidin-1-yl)cyclohexyl]methyl}-4-[4-chloro-3-(trifluoromethyl)phenyl]piperidin-4-ol] | > 1 | 0.0076 | 0.31 | – | – | – | – | – | 0.097
OC12CC3CC(C1)C(NC[C@H]1CC[C@H](c4nnn5cnc6[nH]ccc6c45)CC1)C(C3)C2 (stereo partly drawn) [compound 303, (1S,3R,4r,5S,7S)-4-({[trans-4-(7H-pyrrolo[3,2-e][1,2,3]triazolo[1,5-c]pyrimidin-1-yl)cyclohexyl]methyl}amino)adamantan-1-ol] | > 1 | 0.057 | > 1 | 0.35 | – | – | – | – | –
CN(CCC#N)c1ccc(CN2CCC(c3nnn4cnc5[nH]ccc5c34)CC2)cc1 [compound 226, 3-[(4-{[4-(7H-pyrrolo[3,2-e][1,2,3]triazolo[1,5-c]pyrimidin-1-yl)piperidin-1-yl]methyl}phenyl)(methyl)amino]propanenitrile] | > 1 | 0.28 | > 1 | > 1 | – | – | – | – | –
O=C1CN(C[C@H]2CC[C@H](c3nnn4cnc5[nH]ccc5c34)CC2)CCN1 [compound 260, 4-{[trans-4-(7H-pyrrolo[3,2-e][1,2,3]triazolo[1,5-c]pyrimidin-1-yl)cyclohexyl]methyl}piperazin-2-one] | > 1 | 0.024 | 0.97 | 0.048 | – | – | – | – | –
